We go through 8 molecules from PMC10198977, “Computational design of dynamic receptor—peptide signaling complexes applied to chemotaxis” (Nature Communications, 2023).

Residues, ends and D or L forms follow the SMILES beside them. No end group written: not given here.

Assay [1] has as its target T1, Csedy (Homo sapiens, UniProt P61073). Description: Calcium mobilization of peptides on Csedy. The format is cell-based. Conditions: Csedy receptor, Ca. On the procedure: (§1) Lyophilized peptides were stored at −80 °C and resuspended in assay buffer on the day of the experiment.
(§2) Calcium mobilization assays
(§3) 40,000 HEK 293T cells (gift from Prof. Ted Wensel at Baylor College of Medicine) were transiently transfected with 50 ng WT or variant HA3-CXCR4, 10 ng GNA15 in pcDNA3.1(+). To equalize receptor surface expression, 75 ng of HA3-CXCR4 was used for the Csel2 variant. Cells were first seeded in 100 µL DMEM (Gibco, ref: 41965-039) 10 % FBS in a black-walled, clear-bottom 96-well plate coated with poly-lysine (Sigma, ref: P6407-5MG). Directly after cell loading, 50 µL of the mixture containing 0.5 µL Lipofectamine 2000 (Invitrogen, ref: 11668-019) and the DNA was added on top of the cells. The cells were incubated at 37 °C, 5% CO2, and 95% relative humidity for 20 h, after which, media was refreshed with 150 µL DMEM + 10% FBS. Cells were assayed 48 h post-transfection. Cells were washed with 200 µL FLIPR6 buffer (HBSS + 20 mM HEPES, pH 7.4), then incubated at 37 °C, 5% CO2, and 95% relative humidity for 2 h in 200 µL dye buffer according to the manufacturer’s protocol (Molecular Devices, ref: R8190). Just before the assay, 5× concentrated peptide solutions were prepared in FLIPR6 buffer in a V-bottom 96-well plate. After incubation, peptide solutions were added at a rate of 16 µL/s after 30 s and fluorescence changes were monitored for 90 s after addition using microplate reader FlexStation3 (Molecular Devices). The maximum response after correction by the mock-transfected condition was averaged from three replicates. Values were then plotted against selected concentrations and fitted to a sigmoidal curve using GraphPad Prism v9.
(Calcium flux is commonly read through the fluorescence of an indicator in the cells.)

The target of assay [2] is T1, Csedy. Description: Gαi BRET of peptides on Csedy. It is filed as cell-based. The settings on record: Csedy receptor; for log(EC50): Gi. On the procedure: as §1
(§4) 40,000 HEK 293T cells were transiently transfected with WT or variant HA3-CXCR4, Gαi1−91-Rluc8, Gβ3-WT, and Gγ9-GFP2 in pcDNA3.1(+) at a ratio of 10:1:10:5 respectively. Cells were first seeded in 100 µL DMEM 10% FBS in a poly-lysine coated, white-walled, white-bottom 96-well plate. Directly after cell loading, 50 µL of the mixture containing Lipofectamine 2000 and the DNA was added on top of the cells. The cells were then left to incubate at 37 °C, 5% CO2, and 95% relative humidity for 20 h, after which, 150 µL media was refreshed. Cells were assayed 48 h post-transfection. Cells were washed with 150 µL PBS, then 40 µL BRET buffer (HBSS, 0.2% Glucose) was added to each well. Coelenterazine 400a was first added at a final concentration of 2.5 µM and BRET ratios were measured once using Mithras[2] LB 943 plate reader. After the first measurement, 40 µL of a 3x concentrated agonist solution was added to each well, and BRET ratios were measured for another 30 min using a Mithras[2] LB 943 plate reader. Mock-transfected controls were subtracted from the data. Maximum values averaged from 3 replicates were then plotted against selected concentrations and fitted to a sigmoidal curve using GraphPad Prism v9.
For orientation: Bioluminescence resonance energy transfer reports proximity on the nanometre scale.

Assay [3] deals with T2, WT CXCR4 (Homo sapiens, UniProt P61073). Description: Calcium mobilization of peptides on WT CXCR4. The format is cell-based. Conditions: WT receptor, Ca. On the procedure: as §1, §2, §3
The target of assay [4] is T2, WT CXCR4. The experiment in a line: Gαi BRET of peptides on WT CXCR4. The format is cell-based. Conditions: for Gi BRET (dEC50): vs WT:WT. The method, then: as §1, §4
The subject of another assay is Csel2. Description: Gαi BRET of peptides on Csel2. The format is cell-based. Conditions: for Gi BRET (dEC50): vs WT:WT, Csel2 receptor. The method, then: as §1, §4
Assay [5] has as its target WT CXCR4 with an N-terminal 3xHA-tag (UniProt P61073).
In assay [6] the target is Csel2 designed CXCR4 receptor (UniProt P61073).
The target in assay [7] is Cdyn designed CXCR4 receptor (UniProt P61073).
Assay [8] has as its target Csel2 designed CXCR4 receptor (UniProt P61073). This is another data set of the same source.
For assay [9], the target named is Csedy designed CXCR4 receptor (UniProt P61073).
For assay [10] the target is unchanged. This is another data set of the same source.
In assay [11] the test system is CXCR4 variant ligand-binding cavity. The experiment in a line: Receptor cavity cross-sectional area and structure-function map. Conditions: receptor–peptide pair; Fig. 5c z-axis.
Text: Calculation of receptor cavity cross-sectional area
To quantify the conformational diversity of the ligand binding site between receptor variants, the ligand-binding pocket of the receptor models (from whose the ligand molecule was removed) was geometrically described using pyKVFinder[75]. Cavities were defined using a 1.2 Å probe over a cubic lattice (0.25 Å vertex). A 4.0 Å probe was used to define the entrance of the cavity.
The next assay relates to Gαi activation. The experiment in a line: Gαi dissociation BRET of designed receptors with WT CXCL12(1-17) peptide. The format is cell-based. The settings on record: WT CXCL12 peptide. On the procedure:
as §1, §4

In assay [12] the target is Cdyn designed CXCR4 receptor (UniProt P61073). This is another data set of the same source.

T1 sequence (P61073 whole entry): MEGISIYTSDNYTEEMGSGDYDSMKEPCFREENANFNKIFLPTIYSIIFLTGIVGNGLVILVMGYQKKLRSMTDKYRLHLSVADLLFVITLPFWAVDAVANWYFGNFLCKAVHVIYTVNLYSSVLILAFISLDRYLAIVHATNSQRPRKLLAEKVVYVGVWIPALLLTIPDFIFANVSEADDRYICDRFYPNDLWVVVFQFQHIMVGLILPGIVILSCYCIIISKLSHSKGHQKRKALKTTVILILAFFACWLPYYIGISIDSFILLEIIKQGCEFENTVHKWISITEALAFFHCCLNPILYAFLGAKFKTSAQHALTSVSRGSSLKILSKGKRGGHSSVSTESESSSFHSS
T2 sequence (P61073 whole entry): as above

`CC(C)C[C@H](NC(=O)[C@H](CO)NC(=O)[C@H](Cc1ccc(O)cc1)NC(=O)[C@@H]1CCCN1C(=O)[C@@H](N)CCCCN)C(=O)N[C@@H](CO)C(=O)N[C@@H](CC(C)C)C(=O)N[C@@H](CCCNC(=N)N)C(=O)N[C@@H](CS)C(=O)N1CCC[C@H]1C(=O)N[C@@H](CS)C(=O)N[C@@H](CCCNC(=N)N)C(=O)N[C@@H](Cc1ccccc1)C(=O)N[C@@H](Cc1ccccc1)C(=O)N[C@@H](CCC(=O)O)C(=O)N[C@@H](CO)C(=O)N[C@@H](Cc1c[nH]cn1)C(N)=O` [V3Y-Y7L] (H-KPYSLSLRCPCRFFESH-NH2): the Efficacy at Csedy [1] (average (n=3)) was determined as 102.027 % WT. Also, the “log(EC50)” value was -5.519 at Csedy [1] (replicate 1); -5.737 on Csedy [1] (replicate 2); -5.907 on Csedy [1] (replicate 3); -6.83 on Csedy [2] (replicate 1); -7.058 on Csedy [2] (replicate 2); -7.474 at Csedy [2] (replicate 3). The increase in efficacy at Csedy [2] (vs WT receptor–peptide pair) is reported as greater than 34%.
Broadly, the EC50 is the midpoint of the concentration-response curve. `CC(C)C[C@H](NC(=O)[C@H](CO)NC(=O)[C@@H](NC(=O)[C@@H]1CCCN1C(=O)[C@@H](N)CCCCN)C(C)C)C(=O)N[C@@H](CO)C(=O)N[C@@H](Cc1ccc(O)cc1)C(=O)N[C@@H](CCCNC(=N)N)C(=O)N[C@@H](CS)C(=O)N1CCC[C@H]1C(=O)N[C@@H](CS)C(=O)N[C@@H](CCCNC(=N)N)C(=O)N[C@@H](Cc1ccccc1)C(=O)N[C@@H](Cc1ccccc1)C(=O)N[C@@H](CCC(=O)O)C(=O)N[C@@H](CO)C(=O)N[C@@H](Cc1c[nH]cn1)C(N)=O` [WT, reference compound] (H-KPVSLSYRCPCRFFESH-NH2): the Efficacy at WT CXCR4 [3] (average (n=3)) turned out to be 100 % WT; at WT CXCR4 [4] (WT receptor, Gi, average (n=3)), 100 % WT. Also, the concentration giving a half-maximal response (EC50) was 12.9 µM on WT CXCR4 [3] (replicate 1); 8.57 µM at WT CXCR4 [3] (replicate 2); 15.3 µM at WT CXCR4 [3] (replicate 3); 11.2 µM on WT CXCR4 [4] (WT receptor, Gi, replicate 1); 9.75 µM at WT CXCR4 [4] (WT receptor, Gi, replicate 2); 12 µM on WT CXCR4 [4] (WT receptor, Gi, replicate 3).
As for “Y7L: CXCL12(1-17) peptide variant, Leu at P7 (KPVSLSLRCPCRFFESH-NH2; cysteine pairing not given here)”, the “decrease in overall Gαi response” value with WT CXCR4 [4] (WT receptor (Fig. 3a)) worked out at 18%. In addition, the “Gi BRET (dEC50)” value in the assay with WT CXCR4 [4] (WT receptor, replicate 1) is reported as 0.3425; with WT CXCR4 [4] (WT receptor, replicate 2) it was 0.267; in the assay with WT CXCR4 [4] (WT receptor, replicate 3), 0.275; with Csel2 (replicate 1) it was -0.2255; with Csel2 (replicate 2), -0.0185; in the assay with Csel2 (replicate 3), -0.357. The molecule further gave a Gαi efficacy increase with Csel2 (Csel2 receptor (Fig. 3a)) of 30%.
The molecule KPVSLSLRCPCRFFESH-NH2 (cysteine pairing not given here) [CXCL12 Y7L variant peptide (17 N-terminal residues)] gave an overall Gαi response (BRET) with the Y7L peptide, decrease in assay [5] of 18%. Also, the Gαi efficacy (BRET) with the Y7L peptide, increase in assay [6] stood at 30%.
With KPVSLSYRCPCRFFESH-NH2 (cysteine pairing not given here) [wild-type peptide of the 17 N-terminal residues of CXCL12], in assay [7], the Gαi efficacy (BRET, WT CXCL12 peptide), increase over the CXCR4 WT scaffold is 20% and the Gαi potency (BRET, WT CXCL12 peptide), fold over the CXCR4 WT scaffold is 11 fold. Further, in assay [8], the potency in Gαi-coupling (BRET, HEK 293T cells, WT CXCL12 peptide), fold over WT CXCR4 was determined as 3.2 fold and the potency in calcium mobilization (HEK 293T cells, WT CXCL12 peptide), fold over WT CXCR4 was 3.1 fold. In addition, the Gαi response (BRET) against WT CXCL12 peptide, fold increase over WT CXCR4 in assay [9] was greater than 9 fold.
In [10], KPYSLSLRCPCRFFESH-NH2 (cysteine pairing not given here) [CXCL12 V3Y-Y7L variant peptide (17 N-terminal residues)] came in with an efficacy of signaling, increase of 34% and a potency of signaling, fold increase greater than 100 fold.

B1: Cdyn: CXCR4 receptor design maintaining conformational dynamism; 3 mutations (protein, UniProt P61073 1-352, looked up, variant L41A S178A H113N)
C-X-C chemokine receptor type …: MEGISIYTSDNYTEEMGSGDYDSMKEPCFREENANFNKIFAPTIYSIIFLTGIVGNGLVILVMGYQKKLRSMTDKYRLHLSVADLLFVITLPFWAVDAVANWYFGNFLCKAVNVIYTVNLYSSVLILAFISLDRYLAIVHATNSQRPRKLLAEKVVYVGVWIPALLLTIPDFIFANVAEADDRYICDRFYPNDLWVVVFQFQHIMVGLILPGIVILSCYCIIISKLSHSKGHQKRKALKTTVILILAFFACWLPYYIGISIDSFILLEIIKQGCEFENTVHKWISITEALAFFHCCLNPILYAFLGAKFKTSAQHALTSVSRGSSLKILSKGKRGGHSSVSTESESSSFHSS
Consider B1, for which the “Potency (activity shift from WT)” value in assay [11] amounted to 1.794. Also, the “enhanced potency from WT” value with Gαi activation (up to) was “up to 11 -fold”. Moreover, the “enhanced potency in Gαi-coupling” value in the assay on Gαi activation (over WT CXCR4) is listed as ~11 -fold. Further, in the assay with Gαi activation (vs WT CXCR4), the “increase in efficacy (Gαi)” value is recorded as 20%.
In assay [12], KPYSLSYRCPCRFFESH-NH2 (cysteine pairing not given here) [CXCL12 V3Y variant peptide (17 N-terminal residues)] showed an efficacy of signaling, increase over the WT receptor-peptide pair of 25% and a potency of signaling, fold over the WT receptor-peptide pair greater than 80 fold.
